Converted amounts (≈) assume the structure as drawn. *1 amine or outer side, *2 acyl side, *3 side chain or, on linkers, in order; H or OH if unused. Where a SMILES comes first, the peptide text is derived from it. Bridges are numbered along the chain shown (N, C = ends). [ ]: non-standard residue; d: D form. ξ: configuration not given here. X2 = CCCCCCCCCCCC(CC(=O)[*:1])O[*:2]; ξAsp(3ξ-OH) = NC(C(=O)O)C(O)C(=O)O; X1 = O=C(C1C(O)CCN1[*:1])[*:2]
Tests used:
[1] = tested on: Fusobacterium nucleatum A21906; assay: MIC, serial two-fold dilution method (anaerobic); type: cell-based; details: Fusobacterium nucleatum A21906, GAM agar medium, inoculum 10^7-10^8
[2] = tested on: Streptococcus pneumoniae A9585; assay: MIC, serial two-fold dilution method (aerobic); type: cell-based; details: Streptococcus pneumoniae A9585, GC medium, inoculum 10^6 CFU/ml
[3] = tested on: Staphylococcus aureus A20701; assay: MIC, serial two-fold dilution method (aerobic); type: cell-based; details: Staphylococcus aureus A20701, Mueller-Hinton agar, inoculum 10^4
[4] = tested on: Staphylococcus aureus A20239; assay: MIC, serial two-fold dilution method (aerobic); type: cell-based; details: Staphylococcus aureus A20239, Mueller-Hinton agar, inoculum 10^4
[5] = tested on: Staphylococcus aureus A9748; assay: MIC, serial two-fold dilution method (aerobic); type: cell-based; details: Staphylococcus aureus A9748, Mueller-Hinton agar, inoculum 10^4
[6] = tested on: Bacteroides fragilis A22533; assay: MIC, serial two-fold dilution method (anaerobic); type: cell-based; details: Bacteroides fragilis A22533, GAM agar medium, inoculum 10^7-10^8
[7] = tested on: Fusobacterium varium ATCC 8501; assay: MIC, serial two-fold dilution method (anaerobic); type: cell-based; details: Fusobacterium varium ATCC 8501, GAM agar medium, inoculum 10^7-10^8
[8] = tested on: Haemophilus influenzae A22481; assay: MIC, serial two-fold dilution method (aerobic); type: cell-based; details: Haemophilus influenzae A22481, GC medium, inoculum 10^6 CFU/ml
[9] = tested on: Streptococcus pneumoniae IID-Type-I; assay: MIC, serial two-fold dilution method (aerobic); type: cell-based; details: Streptococcus pneumoniae IID-Type-I, GC medium, inoculum 10^6 CFU/ml
[10] = tested on: Veillonella alcalescens A21914-1; assay: MIC, serial two-fold dilution method (anaerobic); type: cell-based; details: Veillonella alcalescens A21914-1, GAM agar medium, inoculum 10^7-10^8
[11] = tested on: Clostridium ramosum A21970; assay: MIC, serial two-fold dilution method (anaerobic); type: cell-based; details: Clostridium ramosum A21970, GAM agar medium, inoculum 10^7-10^8
[12] = tested on: Bacteroides fragilis A20926; assay: MIC, serial two-fold dilution method (anaerobic); type: cell-based; details: Bacteroides fragilis A20926, GAM agar medium, inoculum 10^7-10^8
[13] = tested on: Bacteroides fragilis CUH-24; assay: MIC, serial two-fold dilution method (anaerobic); type: cell-based; details: Bacteroides fragilis CUH-24, GAM agar medium, inoculum 10^7-10^8
[14] = tested on: Bacillus subtilis ATCC 6633; assay: MIC, serial two-fold dilution method (aerobic); type: cell-based; details: Bacillus subtilis ATCC 6633, Mueller-Hinton agar, inoculum 10^4
Sarcina lutea PCI-1001 = assay: MIC, serial two-fold dilution method (aerobic); type: cell-based; details: Sarcina lutea PCI-1001, Mueller-Hinton agar, inoculum 10^4
[15] = tested on: Bacteroides fragilis A22695; assay: MIC, serial two-fold dilution method (anaerobic); type: cell-based; details: Bacteroides fragilis A22695, GAM agar medium, inoculum 10^7-10^8
[16] = tested on: Bacteroides fragilis A21900; assay: MIC, serial two-fold dilution method (anaerobic); type: cell-based; details: Bacteroides fragilis A21900, GAM agar medium, inoculum 10^7-10^8
[17] = tested on: Staphylococcus aureus A9856; assay: MIC, serial two-fold dilution method (aerobic); type: cell-based; details: Staphylococcus aureus A9856, Mueller-Hinton agar, inoculum 10^4
[18] = tested on: Propionibacterium acnes A21953; assay: MIC, serial two-fold dilution method (anaerobic); type: cell-based; details: Propionibacterium acnes A21953, GAM agar medium, inoculum 10^7-10^8
Strain G393-B445 = assay: Antibiotic sensitivity, paper disc-agar diffusion method; type: cell-based, Empedobacter sp.; set-up: key: S (sensitive); R (resistant); I (intermediate); details: nutrient agar, 2 day's incubation at 28° C., Difco discs, amount/disc per antibiotic
[19] = tested on: Bacteroides fragilis CUH-9; assay: MIC, serial two-fold dilution method (anaerobic); type: cell-based; details: Bacteroides fragilis CUH-9, GAM agar medium, inoculum 10^7-10^8
[20] = tested on: Staphylococcus aureus A22421; assay: MIC, serial two-fold dilution method (aerobic); type: cell-based; details: Staphylococcus aureus A22421, Mueller-Hinton agar, inoculum 10^4
[21] = tested on: Pseudomonas aeruginosa D-113; assay: MIC, serial two-fold dilution method (aerobic); type: cell-based; details: Pseudomonas aeruginosa D-113, Mueller-Hinton agar, inoculum 10^4
[22] = tested on: Propionibacterium acnes A21933; assay: MIC, serial two-fold dilution method (anaerobic); type: cell-based; details: Propionibacterium acnes A21933, GAM agar medium, inoculum 10^7-10^8
[23] = tested on: Clostridium cylindrosporum A9562; assay: MIC, serial two-fold dilution method (anaerobic); type: cell-based; details: Clostridium cylindrosporum A9562, GAM agar medium, inoculum 10^7-10^8
[24] = tested on: Staphylococcus aureus BX-1633; assay: MIC, serial two-fold dilution method (aerobic); type: cell-based; details: Staphylococcus aureus BX-1633, Mueller-Hinton agar, inoculum 10^4
[25] = tested on: Clostridium perfringens A22787; assay: microbe, parasite or virus in culture; type: cell-based
[26] = tested on: Staphylococcus aureus 209P; assay: MIC, serial two-fold dilution method (aerobic); type: cell-based; details: Staphylococcus aureus 209P, Mueller-Hinton agar, inoculum 10^4
[27] = read-out: minimum inhibitory concentration (MIC)
[28] = Cutibacterium acnes, read-out: minimum inhibitory concentration (MIC)

For CC1(C)S[C@@H]2[C@H](NC(=O)[C@H](N)c3ccccc3)C(=O)N2[C@H]1C(=O)O [Ampicillin], the MIC [1, 27] was 12.5 µg/mL (≈ 35.8 µM), the MIC [2, 27] was 0.025 µg/mL (≈ 0.0715 µM) and the MIC [3, 27] was 25 µg/mL (≈ 71.5 µM). It also gave an MIC [4, 27] of 1.6 µg/mL (≈ 4.58 µM), an MIC [5, 27] of 25 µg/mL (≈ 71.5 µM) and an MIC [6, 27] greater than 100 µg/mL. It also gave an MIC ([7]; ATCC8501, read-out: minimum inhibitory concentration (MIC)) of 12.5 µg/mL (≈ 35.8 µM), an MIC [8, 27] of 50 µg/mL (≈ 143 µM) and an MIC [9, 27] of 0.025 µg/mL (≈ 0.0715 µM). For the same molecule, the MIC ([10]; Veillonella parvula, A219141, read-out: minimum inhibitory concentration (MIC)) was 0.025 µg/mL (≈ 0.0715 µM), the MIC ([11]; Thomasclavelia ramosa, read-out: minimum inhibitory concentration (MIC)) was 0.8 µg/mL (≈ 2.29 µM) and the MIC [12, 27] was 0.2 µg/mL (≈ 0.572 µM). For the same molecule, the MIC ([13]; CUH24, read-out: minimum inhibitory concentration (MIC)) was 50 µg/mL (≈ 143 µM), the MIC ([14]; ATCC6633, read-out: minimum inhibitory concentration (MIC)) was 0.013 µg/mL (≈ 0.0372 µM) and the MIC (Sarcina lutea PCI-1001; Micrococcus luteus, PCI1001, read-out: minimum inhibitory concentration (MIC)) was less than 0.05 µg/mL. The MIC [15, 27] was greater than 100 µg/mL, the MIC [16, 27] was 0.2 µg/mL (≈ 0.572 µM) and the MIC [17, 27] was 0.05 µg/mL (≈ 0.143 µM). For the same molecule, the MIC [18, 28] was less than 0.0063 µg/mL, the “Sensitivity Strain G393-B445” value (Strain G393-B445) was “S” and the MIC ([19]; CUH9, read-out: minimum inhibitory concentration (MIC)) was 3.1 µg/mL (≈ 8.87 µM). It also gave an MIC [20, 27] of 12.5 µg/mL (≈ 35.8 µM), an MIC ([21]; D113, read-out: minimum inhibitory concentration (MIC)) greater than 100 µg/mL and an MIC [22, 28] of 0.2 µg/mL (≈ 0.572 µM). It also gave an MIC [23, 27] of 0.8 µg/mL (≈ 2.29 µM), an MIC ([24]; BX1633, read-out: minimum inhibitory concentration (MIC)) of 3.1 µg/mL (≈ 8.87 µM) and an MIC ([25]; Clostridium perfringens, A22787, read-out: minimum inhibitory concentration (MIC)) of 0.1 µg/mL (≈ 0.286 µM). For the same molecule, the MIC [26, 27] was 0.013 µg/mL (≈ 0.0372 µM).
In the case of CCCCCCCCCCCC1CC(=O)N2CCCC2C(=O)NC(CO)C(=O)N2CCCC2C(=O)NC(CCCNC(=N)N)C(=O)NC(C(O)C(=O)O)C(=O)NC(CO)C(=O)N2CCC(O)C2C(=O)NC(C(O)C(=O)O)C(=O)O1 (stereo not shown) [Bu-2517] (PSPR[ξAsp(3ξ-OH)]S[X1][ξAsp(3ξ-OH)]; linker N-C via X2; configuration not given here), the “minimum inhibitory concentration (MIC)” value [1] is reported as 12.5 µg/mL (≈ 11.1 µM), the “minimum inhibitory concentration (MIC)” value [2] is reported as 1.6 µg/mL (≈ 1.42 µM) and the “minimum inhibitory concentration (MIC)” value [3] is reported as 1.6 µg/mL (≈ 1.42 µM). The “minimum inhibitory concentration (MIC)” value [4] was 1.6 µg/mL (≈ 1.42 µM), the “minimum inhibitory concentration (MIC)” value [5] was 1.6 µg/mL (≈ 1.42 µM) and the “minimum inhibitory concentration (MIC)” value [6] was greater than 100 µg/mL. For the same molecule, the “minimum inhibitory concentration (MIC)” value [7] was 50 µg/mL (≈ 44.4 µM), the “minimum inhibitory concentration (MIC)” value [8] was greater than 100 µg/mL and the “minimum inhibitory concentration (MIC)” value [9] was 0.8 µg/mL (≈ 0.71 µM). For the same molecule, the “minimum inhibitory concentration (MIC)” value [10] was 1.6 µg/mL (≈ 1.42 µM), the “minimum inhibitory concentration (MIC)” value [11] was 1.6 µg/mL (≈ 1.42 µM) and the “minimum inhibitory concentration (MIC)” value [12] was 25 µg/mL (≈ 22.2 µM). The “minimum inhibitory concentration (MIC)” value [13] was greater than 100 µg/mL, the “minimum inhibitory concentration (MIC)” value [14] was 0.8 µg/mL (≈ 0.71 µM) and the “minimum inhibitory concentration (MIC)” value (Sarcina lutea PCI-1001) was less than 0.05 µg/mL. The “minimum inhibitory concentration (MIC)” value [15] was greater than 100 µg/mL, the “minimum inhibitory concentration (MIC)” value [16] was 6.3 µg/mL (≈ 5.59 µM) and the “minimum inhibitory concentration (MIC)” value [17] was 0.8 µg/mL (≈ 0.71 µM). For the same molecule, the “minimum inhibitory concentration (MIC)” value [18] was 6.3 µg/mL (≈ 5.59 µM), the “minimum inhibitory concentration (MIC)” value [19] was 100 µg/mL (≈ 88.8 µM) and the “minimum inhibitory concentration (MIC)” value [20] was 0.8 µg/mL (≈ 0.71 µM). For the same molecule, the “minimum inhibitory concentration (MIC)” value [21] was greater than 100 µg/mL, the “minimum inhibitory concentration (MIC)” value [22] was 1.6 µg/mL (≈ 1.42 µM) and the “minimum inhibitory concentration (MIC)” value [23] was 1.6 µg/mL (≈ 1.42 µM). The “minimum inhibitory concentration (MIC)” value [24] was 1.6 µg/mL (≈ 1.42 µM), the “minimum inhibitory concentration (MIC)” value ([25]; Clostridium perfringens A22787, GAM agar medium, inoculum 10^7-10^8) was 3.1 µg/mL (≈ 2.75 µM) and the “minimum inhibitory concentration (MIC)” value [26] was 1.6 µg/mL (≈ 1.42 µM).

Reference: patent US4409210A, “Antibiotic compound” (priority 1982, dated 1983)
